Laboratory results from patent publication US11666580B2, “Mechanism of resistance to bet bromodomain inhibitors” (Dana-Farber Cancer Institute, Inc., priority 2015, dated 2023).

Key:
[1] = test system: SUM149, SUM149R, SUM159, and SUM159R cells; experiment: Synergy studies (ATPlite, combination indices, isobolograms); type: cell-based, human
Protocol: SUM149, SUM149R, SUM159, and SUM159R cells were seeded in sterile, white, opaque 384-well microtiter plates (Thermo), using an automated dispensing system (BioTek EL406), at 1,000 cells per well in 50 μl of media. Drugs were delivered in DMSO by robotic pin transfer with a JANUS workstation (100 nl) to achieve a matrix of pairwise dose-response incubations of each compound, each pair having eight replicates. Following 72 hours of incubation, ATP levels were determined for treated cells and vehicle controls (ATPlite, PerkinElmer). Data were normalized to vehicle controls. Combination indices were determined using the median-effect principle of Chou and Talalay^49 (CalcuSyn Software). Isobologram plots were generated with GraphPad Prism software. Points represent paired values of drug concentrations assessed for synergism. The diagonal line signifies drug additivity. Points above the line represent antagonistic drug combinations, and those below the line represent synergistic drug combinations. Synergy assays were performed in triplicates and repeated 2-3 times.

[2] = test system: xenografts derived from SUM159R cells; experiment: Xenograft assay, SUM159R (BBI-resistant SUM159); type: in vivo, mice; settings: administered along with JQ1
Protocol: (§1) For xenograft assays 5-6-weeks old female CrTac:NCr-Foxn1^nu and NOD.Cg-Prkdc^scid Il2rg^tm1Sug/JicTac mice were purchased from Taconic. Tumors were induced by bilateral orthotopic mammary fat pad injection of 1×10^6 cells in 50% Matrigel (BD Biosciences) in DMEM/F12 or Medium 171 (except for IDC50-X cells, which were injected with 3% FBS and 4 mg/ml collagen gel in Medium 171). Animal experiments were conducted following protocol 11-023 approved by the Dana-Farber Cancer Institute Animal Care and Use Committee.

[3] = test system: tumors derived from BBI-resistant SUM149 cells; experiment: Xenograft assay, BBI-resistant SUM149; type: in vivo, mice; settings: administered along with JQ1
Protocol: as §1

[4] = test system: MDR (multi drug resistance) pumps in SUM159 and SUM159R cells; experiment: Multi-Drug Resistance (MDR) assay; type: cell-based, human; settings: with JQ1
Protocol: Cell viability and growth assays (FIGS. 1A-1B, FIGS. 3A-3E, 3G, FIGS. 5D-5F, FIGS. 6C, 6E, 6I, FIG. 7A, FIG. 10D, FIGS. 14A-14C), cycle, apoptosis, and MDR assays were performed in triplicates and repeated 2-3 times. For cell proliferation assays, cells were plated at 500 cells per well in 96-well plates and treated the next day with inhibitors, DMSO or doxycycline (500 ng). Cells were cultured at 37° C. with 5% CO2 in the media described-above, and cell viability was measured using CellTiter-Glo three days after treatments. For cell growth assays, cells were plated at 5000 (SUM159) or 20000 (SUM149) cells per well in 6-well plates and treated the next day with inhibitors. Cells were counted every three days by cell counter. Cellular apoptosis was analyzed with an APC AnnexinV/7ADD Apoptosis Detection kit (BD Pharmingen). AnnexinV/7AAD assessments and cell cycle graphics were generated using FlowJo software V7.6.1 for Windows (Tree Star). Senescence Beta-gal staining was performed using Senescence β-Galactosidase staining kit from Cell signaling. Briefly, after JQ1 treatment (500 nM) for 72 h, SUM159 and MDA-MB-231 cells were fixed by Fixative Solution for 15 min, followed by β-Galactosidase solution incubation overnight at 37° C. The staining was checked under microscope for the development of blue color. […]

[5] = test system: BRD4-MED1 association in SUM159R cells; experiment: BRD4 immunoprecipitation followed by immunoblot for MED1, resistant cells; type: cell-based, human; settings: SUM159R, 3 hrs treatment
Protocol: Cells were lysed five days after transfection with siRNAs in RIPA buffer. Proteins were resolved in SDS-polyacrylamide gels (4%-12%) and transferred to PVDF membranes by using a Tris-glycine buffer system. […] Cells were incubated on ice for 15 min and gently vortexed every 5 min. […] After centrifugation of the lysates at 14 g for 10 min at 4° C., supernatant was diluted with 0.6 ml buffer A, and added NP-40 to final 0.5% and treated with DNase I. The samples were then incubated at 4° C. overnight with BRD4 or Flag antibodies at 1:100 dilution and immunoprecipitates were collected on Dynabeads Protein G for 2 hr. Beads were washed with buffer B containing 150 mM NaCl and 0.5% NP-40 three times and then resuspended in gel loading buffer. Immunoblotting and immunoprecipitation experiments were repeated 2-3 times.

phospho-BRD4 (pBRD4) = experiment: Immunoblot analysis of phospho-BRD4; type: cell-based, human; settings: SUM159R, SUM149R, and other cell lines; short-term treatment
Excerpt: Immunoblotting and immunoprecipitation experiments were repeated 2-3 times.

[6] = summary statement, resistant cells

Compound | Synergy with JQ1 [1, 6] | Synergy with JQ1 ([1]; synergy screens, 72 hours) | Tumor weight [2] | Tumor weight [3] | further results
OCCN1CCN(CCCN2c3ccccc3Sc3ccc(Cl)cc32)CC1 [perphenazine] | substantial synergy | Significant synergy |  |  | 
CC1(C)CCC(c2ccc(Cl)cc2)=C(CN2CCN(c3ccc(C(=O)NS(=O)(=O)c4ccc(N[C@H](CCN5CCOCC5)CSc5ccccc5)c(S(=O)(=O)C(F)(F)F)c4)cc3)CC2)C1 [ABT 263, 4-[4-[[2-(4-chlorophenyl)-5,5-dimethylcyclohexen-1-yl]methyl]piperazin-1-yl]-N-[4-[[(2R)-4-morpholin-4-yl-1-phenylsulfanylbutan-2-yl]amino]-3-(trifluoromethylsulfonyl)phenyl]sulfonylbenzamide] | substantial synergy |  | reduced tumor weight to a greater extent than the corresponding single therapy and JQ1 alone | reduced tumor weight to a greater extent than the corresponding single therapy and JQ1 alone | 
N#CC[C@H](C1CCCC1)n1cc(-c2ncnc3[nH]ccc23)cn1 [INC424] |  |  | reduced tumor weight to a greater extent than the corresponding single therapy and JQ1 alone | reduced tumor weight to a greater extent than the corresponding single therapy and JQ1 alone | 
CC1(C)CCC(CN2CCN(c3ccc(C(=O)NS(=O)(=O)c4ccc(NCC5CCOCC5)c([N+](=O)[O-])c4)c(Oc4cnc5[nH]ccc5c4)c3)CC2)=C(c2ccc(Cl)cc2)C1 [ABT 199, 4-[4-[[2-(4-chlorophenyl)-4,4-dimethylcyclohexen-1-yl]methyl]piperazin-1-yl]-N-[3-nitro-4-(oxan-4-ylmethylamino)phenyl]sulfonyl-2-(1H-pyrrolo[2,3-b]pyridin-5-yloxy)benzamide] | substantial synergy |  | reduced tumor weight to a greater extent than the corresponding single therapy and JQ1 alone | reduced tumor weight to a greater extent than the corresponding single therapy and JQ1 alone | 
CN(C)CC[C@H](CSc1ccccc1)Nc1ccc(S(=O)(=O)NC(=O)c2ccc(N3CCN(Cc4ccccc4-c4ccc(Cl)cc4)CC3)cc2)cc1[N+](=O)[O-] [ABT737, 4-[4-[[2-(4-chlorophenyl)phenyl]methyl]piperazin-1-yl]-N-[4-[[(2R)-4-(dimethylamino)-1-phenylsulfanylbutan-2-yl]amino]-3-nitrophenyl] sulfonylbenzamide] | substantial synergy | Significant synergy |  |  | 
COc1ccc(CCN(C)CCCC(C#N)(c2ccc(OC)c(OC)c2)C(C)C)cc1OC (centres unmarked) [verapamil] |  |  |  |  | Effect of co-incubation with MDR1 inhibitor on BBI-resistance [4]: had no effect
c1ccc2c(c1)Nc1ccccc1S2 [phenothiazine] |  |  |  |  | MED1 abundance in BRD4 immunoprecipitation [5]: decreased MED1 abundance; pBRD4 levels (phospho-BRD4 (pBRD4)): rapid dephosphorylation of BRD4
O=C(O)c1ccc2c(c1)nc(Nc1cccc(Cl)c1)c1ccncc12 [CX-4945, 5-(3-chloroanilino)benzo[c][2,6]naphthyridine-8-carboxylic acid] | substantial synergy | Significant synergy |  |  | 
